In US20090029949A1, “GPCR Ligands Identified by Computational Modeling” (priority 2006, published 2009):
Entries after “also recorded” stand apart in the source; their conditions may differ. Peptide text beside a SMILES is read from it. * marks the point of attachment. Dnp = O=[N+]([O-])c1ccc(*)c([N+](=O)[O-])c1

Experiments:
LPA3 = biological target: T1, LPA3 (Homo sapiens, UniProt Q9UBY5); assay: LPA agonist/antagonist activity at LPA3 (Table 2); format: cell-based; settings: for LPA3 effect: result in words; for LPA3 inhibition of 200 nM LPA response at 30JM: compound at 30JM
T1 sequence (Q9UBY5 1-353): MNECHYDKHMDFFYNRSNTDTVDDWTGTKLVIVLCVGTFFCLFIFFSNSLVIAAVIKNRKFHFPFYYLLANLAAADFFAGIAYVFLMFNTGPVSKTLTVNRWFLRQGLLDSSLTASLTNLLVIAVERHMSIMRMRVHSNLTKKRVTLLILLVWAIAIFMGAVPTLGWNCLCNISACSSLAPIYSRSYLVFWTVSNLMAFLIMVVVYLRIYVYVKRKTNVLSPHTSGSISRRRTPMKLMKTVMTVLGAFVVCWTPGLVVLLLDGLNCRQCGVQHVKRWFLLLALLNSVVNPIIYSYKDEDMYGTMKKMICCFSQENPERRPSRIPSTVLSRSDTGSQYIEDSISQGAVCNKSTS

LPA2 = LPA2 (Homo sapiens, UniProt Q9HBW0); assay: LPA agonist/antagonist activity at LPA2 (Table 2); format: cell-based; settings: for LPA2 effect: result in words
Chain of LPA2 (Q9HBW0 whole entry, species assumed): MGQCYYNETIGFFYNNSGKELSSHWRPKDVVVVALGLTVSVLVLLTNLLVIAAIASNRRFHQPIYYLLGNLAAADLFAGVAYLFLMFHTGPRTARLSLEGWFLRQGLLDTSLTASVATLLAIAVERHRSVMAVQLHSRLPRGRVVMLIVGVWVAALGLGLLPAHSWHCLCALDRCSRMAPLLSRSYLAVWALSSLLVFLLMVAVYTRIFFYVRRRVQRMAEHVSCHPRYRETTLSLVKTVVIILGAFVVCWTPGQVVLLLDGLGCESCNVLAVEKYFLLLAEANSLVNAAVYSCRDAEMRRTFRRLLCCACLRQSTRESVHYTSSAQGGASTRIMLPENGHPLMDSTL

LPA1 = LPA1 (Homo sapiens, UniProt Q92633); assay: LPA agonist/antagonist activity at LPA1 (Table 2); format: cell-based; settings: for LPA1 effect: result in words
Chain of LPA1 (Q92633 whole entry, species assumed): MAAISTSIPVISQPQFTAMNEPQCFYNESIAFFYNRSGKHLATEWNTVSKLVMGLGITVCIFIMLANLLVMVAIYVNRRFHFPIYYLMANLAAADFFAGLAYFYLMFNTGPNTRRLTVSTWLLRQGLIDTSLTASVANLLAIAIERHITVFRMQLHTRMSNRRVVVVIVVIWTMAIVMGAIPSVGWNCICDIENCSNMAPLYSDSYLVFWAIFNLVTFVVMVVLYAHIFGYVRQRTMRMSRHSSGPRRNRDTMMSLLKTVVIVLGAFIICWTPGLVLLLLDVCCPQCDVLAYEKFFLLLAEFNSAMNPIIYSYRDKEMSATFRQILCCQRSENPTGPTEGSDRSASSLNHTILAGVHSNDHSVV

WT S1P1 = WT S1P1 (Homo sapiens, UniProt P21453); assay: Ligand-induced [35S]GTPγS binding, WT S1P1; format: biochemical; set-up: expressed in transfected cells; host or cells: RH7777 (transient, pcDNA3.1); settings: for S1P1 receptor activation in the GTPγS activation assay: at 10 μM, versus vehicle; for S1P1 agonist character: result in words
Chain of WT S1P1 (P21453 whole entry): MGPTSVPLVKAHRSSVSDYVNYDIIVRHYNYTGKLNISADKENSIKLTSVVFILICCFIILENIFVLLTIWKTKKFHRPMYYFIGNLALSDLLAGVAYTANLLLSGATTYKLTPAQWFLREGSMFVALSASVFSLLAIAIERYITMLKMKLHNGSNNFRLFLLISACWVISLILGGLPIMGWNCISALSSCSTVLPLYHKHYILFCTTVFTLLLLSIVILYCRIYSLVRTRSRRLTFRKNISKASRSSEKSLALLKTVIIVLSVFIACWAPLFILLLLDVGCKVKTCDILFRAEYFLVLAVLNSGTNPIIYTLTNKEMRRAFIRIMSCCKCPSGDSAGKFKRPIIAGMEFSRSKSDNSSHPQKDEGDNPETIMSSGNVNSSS
Experimental: (§1) RH7777 and HEK-293 cells (ATCC, Manassas, Va.) were maintained in Dulbecco's modified minimal essential medium (DMEM) containing 10% fetal bovine serum (Hyclone, Logan, Utah). Cells (2×10^6) were transfected with 2 μg of plasmid DNA with Effectene (Qiagen, Valencia, Calif.) according to the manufacturer's instructions, for 24 h. Before ligand binding and receptor activation assays, the cells were washed twice with serum-free DMEM and serum-starved for at least 6 h.
(§2) S1P1 Receptor Activation Assays Receptor functional assays were performed in transiently transfected RH7777 cells by measuring S1P-activated [^35S]GTPγS binding as previously described (28).

S1P1 mutant V6.40L = biological target: T2, S1P1 mutant V6.40L (Homo sapiens, UniProt P21453, V261L); assay: [35S]GTPγS binding, S1P1 V6.40L; format: biochemical; settings: S1P1 V6.40L, result in words
T2 construct: expressed in transfected cells; host or cells: RH7777
T2 sequence (P21453 whole entry V261L): as the sequence (P21453 whole entry) above, with V261L counted along it
Experimental: as §1, §2

S1P1 mutant L3.36E = S1P1 mutant L3.36E (Homo sapiens, UniProt P21453, L128E); assay: [35S]GTPγS binding, S1P1 L3.36E; format: biochemical; set-up: expressed in transfected cells; host or cells: RH7777 (transient, pcDNA3.1); settings: S1P1 L3.36E, result in words, compared with S1P
Chain of S1P1 mutant L3.36E (P21453 whole entry L128E): as the sequence (P21453 whole entry) above, with L128E counted along it
Experimental: as §1, §2

S1P1 mutant F5.48G = biological target: T3, S1P1 mutant F5.48G (Homo sapiens, UniProt P21453, F210G); assay: [35S]GTPγS binding, S1P1 F5.48G; format: biochemical; settings: S1P1 F5.48G, result in words, compared with S1P
T3 construct: expressed in transfected cells
T3 sequence (P21453 whole entry F210G): as the sequence (P21453 whole entry) above, with F210G counted along it
Experimental: as §1, §2

S1P1 mutant W6.48A = biological target: T4, S1P1 mutant W6.48A (Homo sapiens, UniProt P21453, W269A); assay: [35S]GTPγS binding, S1P1 W6.48A; format: biochemical; settings: S1P1 W6.48A, result in words, compared with S1P
T4 construct: expressed in transfected cells
T4 sequence (P21453 whole entry W269A): as the sequence (P21453 whole entry) above, with W269A counted along it
Experimental: as §1, §2

SMILES | LPA2 effect (LPA2) | LPA1 effect (LPA1) | IC50 (LPA3) [nM] | IC50 (LPA2) [nM] | LPA3 Inhibition of 200 nM LPA response (LPA3) [%] | also measured
OC1C(O)[C@@H](COP(O)(O)=S)O[C@H]1n1cnc2c(NCc3ccccc3)ncnc21 (some centres unmarked) | PotentiatesLPA-inducedactivation | No effect | – | – | – | LPA3 effect (LPA3): No effect
CCN(CC)CCOc1ccc(/C(C#N)=C\c2ccc(C(F)(F)F)cc2)cc1 [NSC59474] | – | – | – | – | – | S1P1 receptor activation in the GTPγS activation assay (WT S1P1): GTPγS activation greater than that of the vehicle; S1P1 agonist character (WT S1P1): partial agonists
O=C(c1ccccc1Cc1ccc2ccc(C(F)(F)F)cc2c1)c1cccc2ccccc12 [NSC99548] | – | – | – | – | – | S1P1 receptor activation in the GTPγS activation assay (WT S1P1): GTPγS activation greater than that of the vehicle; S1P1 agonist character (WT S1P1): partial agonists
Cc1cc2nc3c(=O)[nH]c(=O)nc-3n(CCOC(=O)CCC(=O)O)c2cc1C [NSC 3066] | – | – | 103 | 167 | – | Ki (LPA3): 44.8 nM; Ki (LPA2): 78.7 nM; IC50 (LPA1): 197 nM; Ki (LPA1): 91.7 nM
COc1ccc(C(=O)CCCC(=O)O)c(OC)c1O [NSC 10167] | – | No Effect | 517 | 88 | 49.9 | LPA2 Inhibition of 10 nM LPA response (LPA2): 47.4%
O=C(NC(Cc1ccc2c(c1)OCO2)C(=O)O)c1ccccc1 (centres unmarked) [NSC 10188] | – | Weak agonist | – | 6900 | – | LPA3 effect (LPA3): No effect; LPA2 inhibition of 200 nM LPA response at 30JM (LPA2; 200 nM LPA, compound at 30JM): 55.8%
COC(=O)C(CCC(=O)O)N1C(=O)c2ccccc2C1=O (centres unmarked) [NSC 16540] | – | No effect | 231 | 100 | 59.7 | LPA2 Inhibition of 10 nM LPA response (LPA2): 50.9%
O=C(O)CCC(NC(=O)OCc1ccccc1)C(=O)NC(Cc1ccccc1)C(=O)O (centres unmarked) [NSC 18760] | – | No effect | 9 | 20 | 58.7 | LPA2 Inhibition of 10 nM LPA response (LPA2): 53.3%
NCC(=O)NC(CSc1ccc([N+](=O)[O-])cc1[N+](=O)[O-])C(=O)NC(CCC(=O)O)C(=O)O (centres unmarked) [NSC 161613] (H-Gly-Cys(Dnp)-Glu-OH; configuration not given here) | No effect | No effect | 24 | – | 69.8 | –
FC(F)(F)c1cccc(-c2noc(-c3cc(-c4ccccc4)c(C(F)(F)F)s3)n2)c1 [SEW2871] | – | – | – | – | – | ligand-induced GTPγS activation (S1P1 mutant V6.40L): slightly activated; also recorded: partial activation; ligand-induced GTPγS activation (S1P1 mutant V6.40L; listed as SE2871): dose-dependent partial activation; ligand-induced GTPγS activation (S1P1 mutant L3.36E): similarly impaired activation; ligand-induced GTPγS activation (S1P1 mutant F5.48G): similarly impaired activation; ligand-induced GTPγS activation (S1P1 mutant W6.48A): similarly impaired activation

The next lines start with results.

LPA2 effect (LPA2) | LPA1 effect (LPA1) | IC50 (LPA3) [nM] | IC50 (LPA2) [nM] | LPA3 Inhibition of 200 nM LPA response (LPA3) [%] | SMILES | also measured
– | No effect | 30 | 355 | 81.7 | O=C(O)/C=C/C(=O)Nc1cccc(NC(=O)/C=C/C(=O)O)c1C(=O)O [NSC 47091] | LPA2 Inhibition of 10 nM LPA response (LPA2): 53.5%
– | – | 35 | 172 | – | Cn1c(=O)c2c(nc(C(=N)SCC(=O)O)n2C)n(C)c1=O [NSC 62586] | Ki (LPA3): 15.7 nM; Ki (LPA2): 117 nM; IC50 (LPA1): 234 nM; Ki (LPA1): 91.7 nM
No Effect | Weak agonist | – | – | – | COc1ccc2c(c1)c(CC(=O)O)c(C)n2C(=O)c1ccc(Cl)cc1 [NSC 77541] | LPA3 inhibition of 200 nM LPA response at 30JM (LPA3): 76.2%
No Effect | Weak agonist | 1310 | – | – | CCCC(=O)Nc1ncnc2c1ncn2C1OC2COP(=O)(O)OC2C1OC(=O)CCC (centres unmarked) [NSC 143108] | LPA3 inhibition of 200 nM LPA response at 30JM (LPA3): 61.0%
No effect | No effect | – | – | – | O=P(O)(O)OC[C@H]1O[C@@H](n2cnc3c(NCc4ccccc4)ncnc32)C(O)C1O (some centres unmarked) [NSC 255523] | LPA3 effect (LPA3): PotentiatesLPA-inducedactivation
